Test results published in publication PMC6704710, “Preclinical evaluation of 3D185, a novel potent inhibitor of FGFR1/2/3 and CSF-1R, in FGFR-dependent and macrophage-dominant cancer models” (Journal of Experimental & Clinical Cancer Research : CR, 2019).

How the values were obtained:
[1] = molecular target: T1, PASK(h) (Homo sapiens, UniProt Q96RG2); test: Eurofins kinase panel; type: biochemical; details: read-out: Inhibition rate (%)
T1 construct: purchased Eurofins (KinaseProfiler)

[2] = test system: MKN45; test: Cell proliferation assay; type: cell-based; details: Homo sapiens, MKN-45; Fig. 2G
Method: (§1) The cancer cell lines indicated in Figure 3 were seeded in 96-well plates at a low density in growth medium. The next day, appropriate controls or the designated concentrations of the compounds were added to each well, and the cells were incubated for 72 h. HUVECs (passage 3) were seeded in 96-well plates in growth medium overnight and transferred to serum-free medium for 24 h. The following day, appropriate controls or the designated concentrations of the compounds were added to each well, and 100 ng/mL growth factor (bFGF or VEGF) was added to the indicated wells. The cells were incubated for 48 h. Finally, cell proliferation was determined using a sulforhodamine B (SRB) assay or a cell counting kit-8 (CCK-8) assay. […] IC50 values for proliferation curves were calculated using a 4-parameter logistic nonlinear regression model with SoftMax Pro Software (Molecular Devices, San Jose, USA).

[3] = test system: SGC-7901; test: Cell proliferation assay; type: cell-based; details: Homo sapiens, Fig. 2G
Method: as §1

[4] = test system: MCF-7; test: Cell proliferation assay; type: cell-based; details: Homo sapiens, MCF7; Fig. 2G
Method: as §1

[5] = test system: NCI-H1975; test: Cell proliferation assay; type: cell-based; details: Homo sapiens, Fig. 2G
Method: as §1

[6] = test system: MDA-MB-453; test: Cell proliferation assay; type: cell-based; details: Homo sapiens, Fig. 2G
Method: as §1

[7] = test system: NCI-H1299; test: Cell proliferation assay; type: cell-based; details: Homo sapiens, Fig. 2G
Method: as §1

[8] = test system: A375; test: Cell proliferation assay; type: cell-based; details: Homo sapiens, A-375; Fig. 2G
Method: as §1

[9] = test system: NCI-H520; test: Cell proliferation assay; type: cell-based; details: Homo sapiens, Fig. 2G
Method: as §1

[10] = test system: BGC-823; test: Cell proliferation assay; type: cell-based; details: Homo sapiens, Fig. 2G
Method: as §1

[11] = test system: MKN1; test: Cell proliferation assay; type: cell-based; details: Homo sapiens, MKN-1; Fig. 2G
Method: as §1

[12] = test system: EBC-1; test: Cell proliferation assay; type: cell-based; details: Homo sapiens, Fig. 2G
Method: as §1

[13] = test system: HCC1954; test: Cell proliferation assay; type: cell-based; details: Homo sapiens, Fig. 2G
Method: as §1

[14] = test system: MKN28; test: Cell proliferation assay; type: cell-based; details: Homo sapiens, MKN-28; Fig. 2G
Method: as §1

[15] = test system: CAL51; test: Cell proliferation assay; type: cell-based; details: Homo sapiens, CAL-51; Fig. 2G
Method: as §1

[16] = test system: NCI-H460; test: Cell proliferation assay; type: cell-based; details: Homo sapiens, Fig. 2G
Method: as §1

[17] = test system: T47D; test: Cell proliferation assay; type: cell-based; details: Homo sapiens, Fig. 2G
Method: as §1

[18] = test system: HCC78; test: Cell proliferation assay; type: cell-based; details: Homo sapiens, Fig. 2G
Method: as §1

[19] = test system: SK-BR-3; test: Cell proliferation assay; type: cell-based; details: Homo sapiens, Fig. 2G
Method: as §1

[20] = test system: HCC366; test: Cell proliferation assay; type: cell-based; details: Homo sapiens, Fig. 2G
Method: as §1

[21] = test system: NCI-H2444; test: Cell proliferation assay; type: cell-based; details: Homo sapiens, Fig. 2G
Method: as §1

[22] = molecular target: T2, MST3(h) (Homo sapiens, UniProt Q9Y6E0); test: Eurofins kinase panel; type: biochemical; details: read-out: Inhibition rate (%)
T2 construct: purchased Eurofins (KinaseProfiler)

[23] = molecular target: T3, SIK2(h) (Homo sapiens, UniProt Q9H0K1); test: Eurofins kinase panel; type: biochemical; details: read-out: Inhibition rate (%)
T3 construct: purchased Eurofins (KinaseProfiler)

[24] = molecular target: T4, Mnk2(h) (Homo sapiens, UniProt Q9HBH9); test: Eurofins kinase panel; type: biochemical; details: read-out: Inhibition rate (%)
T4 construct: purchased Eurofins (KinaseProfiler)

[25] = test system: 372 human recombinant kinases; test: Eurofins kinase panel, overall selectivity; type: biochemical
Method: Active FGFR1–4, VEGFR1, KDR, VEGFR3, PDGFRα and PDGFRβ proteins were purchased from Eurofins (Fremont, United States), and kinase activity was assessed using ELISA, as previously reported. The broader kinase selectivity profile of 3D185 (0.01, 0.1, and 1 μM) was determined by Eurofins by screening the compound against 372 human recombinant kinases. Increasing concentrations of ATP were diluted for the kinase reaction in the ATP competition assay. CSF-1R kinase activity was analyzed using the Z’-LYTE™ Kinase Assay Kit (Thermo Fisher, United States). The assay formats are described in the SelectScreen Kinase Profiling Service Zlyte protocol. IC50 values were calculated by dose-response curve fitting using Prism (Graph Pad).

[26] = molecular target: T5, cKit(V654A)(h) (Homo sapiens, UniProt P10721, V654A); test: Eurofins kinase panel; type: biochemical; details: read-out: Inhibition rate (%)
T5 construct: purchased Eurofins (KinaseProfiler)

[27] = molecular target: T6, VEGFR2 (KDR) (Homo sapiens, UniProt P35968); test: Kinase inhibition assay (ELISA); type: biochemical
T6 construct: purchased Eurofins (Fremont, United States)

[28] = molecular target: T7, ACK1(h) (Homo sapiens, UniProt Q07912); test: Eurofins kinase panel; type: biochemical; details: read-out: Inhibition rate (%)
T7 construct: purchased Eurofins (KinaseProfiler)

[29] = molecular target: T8, Plk3(h) (Homo sapiens, UniProt Q9H4B4); test: Eurofins kinase panel; type: biochemical; details: read-out: Inhibition rate (%)
T8 construct: purchased Eurofins (KinaseProfiler)
T8 sequence (Q9H4B4 whole entry): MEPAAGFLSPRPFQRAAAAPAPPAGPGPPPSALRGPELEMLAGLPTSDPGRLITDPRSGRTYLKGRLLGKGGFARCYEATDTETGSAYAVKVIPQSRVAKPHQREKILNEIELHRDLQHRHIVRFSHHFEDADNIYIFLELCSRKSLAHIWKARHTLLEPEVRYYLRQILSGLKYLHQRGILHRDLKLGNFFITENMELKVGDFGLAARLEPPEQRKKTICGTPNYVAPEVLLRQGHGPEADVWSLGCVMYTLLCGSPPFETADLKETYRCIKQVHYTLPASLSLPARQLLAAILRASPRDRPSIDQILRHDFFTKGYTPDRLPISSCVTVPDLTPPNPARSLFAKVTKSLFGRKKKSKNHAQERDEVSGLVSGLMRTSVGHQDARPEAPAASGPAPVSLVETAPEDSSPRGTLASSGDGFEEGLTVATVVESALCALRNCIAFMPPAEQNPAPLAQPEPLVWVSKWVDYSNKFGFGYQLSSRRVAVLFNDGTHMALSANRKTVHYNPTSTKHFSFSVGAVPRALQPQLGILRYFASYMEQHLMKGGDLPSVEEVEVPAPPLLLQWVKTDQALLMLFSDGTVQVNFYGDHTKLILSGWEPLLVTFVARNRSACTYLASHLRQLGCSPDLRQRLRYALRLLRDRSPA

T4 sequence (Q9HBH9 whole entry): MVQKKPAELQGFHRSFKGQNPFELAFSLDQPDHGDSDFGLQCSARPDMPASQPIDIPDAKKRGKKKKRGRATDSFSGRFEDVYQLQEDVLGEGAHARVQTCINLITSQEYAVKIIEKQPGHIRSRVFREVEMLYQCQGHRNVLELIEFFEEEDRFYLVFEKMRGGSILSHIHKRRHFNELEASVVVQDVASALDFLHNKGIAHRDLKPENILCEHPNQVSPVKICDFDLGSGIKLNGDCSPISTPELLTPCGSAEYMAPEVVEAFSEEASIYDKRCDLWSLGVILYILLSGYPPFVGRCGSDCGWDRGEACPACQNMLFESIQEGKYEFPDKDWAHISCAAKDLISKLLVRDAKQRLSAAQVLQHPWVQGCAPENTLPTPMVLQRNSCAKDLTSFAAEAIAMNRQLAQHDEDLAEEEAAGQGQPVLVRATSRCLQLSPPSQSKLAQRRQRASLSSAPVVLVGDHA
T2 sequence (Q9Y6E0 whole entry): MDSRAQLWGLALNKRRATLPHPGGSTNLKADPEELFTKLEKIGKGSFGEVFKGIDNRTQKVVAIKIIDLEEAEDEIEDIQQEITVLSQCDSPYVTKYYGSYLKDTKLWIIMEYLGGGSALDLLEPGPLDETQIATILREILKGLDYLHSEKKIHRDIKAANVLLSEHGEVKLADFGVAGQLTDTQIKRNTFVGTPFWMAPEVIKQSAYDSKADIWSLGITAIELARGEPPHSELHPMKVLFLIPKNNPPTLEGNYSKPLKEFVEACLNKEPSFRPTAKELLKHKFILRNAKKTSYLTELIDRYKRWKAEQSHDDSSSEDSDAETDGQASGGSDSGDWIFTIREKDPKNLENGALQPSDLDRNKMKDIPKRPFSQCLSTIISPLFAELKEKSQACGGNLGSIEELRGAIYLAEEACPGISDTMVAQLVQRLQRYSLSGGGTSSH
T3 sequence (Q9H0K1 whole entry): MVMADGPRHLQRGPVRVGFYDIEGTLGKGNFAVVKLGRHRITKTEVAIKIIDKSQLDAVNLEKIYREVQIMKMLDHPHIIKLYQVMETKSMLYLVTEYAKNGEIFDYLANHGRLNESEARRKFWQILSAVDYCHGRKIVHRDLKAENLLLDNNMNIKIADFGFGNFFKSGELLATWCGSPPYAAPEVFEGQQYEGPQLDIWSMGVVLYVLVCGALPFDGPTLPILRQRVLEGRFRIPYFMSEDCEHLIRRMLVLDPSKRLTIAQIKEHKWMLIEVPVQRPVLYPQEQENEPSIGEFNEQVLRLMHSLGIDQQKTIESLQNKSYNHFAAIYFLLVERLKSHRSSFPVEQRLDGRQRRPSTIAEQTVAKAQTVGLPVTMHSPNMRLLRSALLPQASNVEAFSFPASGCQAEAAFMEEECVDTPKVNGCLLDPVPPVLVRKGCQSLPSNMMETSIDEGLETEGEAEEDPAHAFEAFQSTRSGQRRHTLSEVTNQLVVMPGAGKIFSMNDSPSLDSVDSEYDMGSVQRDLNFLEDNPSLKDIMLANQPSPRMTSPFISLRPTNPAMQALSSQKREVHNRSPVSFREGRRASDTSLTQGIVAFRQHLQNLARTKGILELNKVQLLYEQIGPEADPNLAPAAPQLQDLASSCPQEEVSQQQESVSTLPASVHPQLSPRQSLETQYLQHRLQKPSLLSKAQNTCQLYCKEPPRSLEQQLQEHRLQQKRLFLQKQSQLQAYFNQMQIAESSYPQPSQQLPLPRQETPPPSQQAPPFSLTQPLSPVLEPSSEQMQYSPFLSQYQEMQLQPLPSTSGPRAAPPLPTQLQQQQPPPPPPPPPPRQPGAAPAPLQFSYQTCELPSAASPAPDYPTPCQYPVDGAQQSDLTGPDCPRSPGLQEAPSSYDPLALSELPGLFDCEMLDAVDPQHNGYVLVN
T1 sequence (Q96RG2 whole entry): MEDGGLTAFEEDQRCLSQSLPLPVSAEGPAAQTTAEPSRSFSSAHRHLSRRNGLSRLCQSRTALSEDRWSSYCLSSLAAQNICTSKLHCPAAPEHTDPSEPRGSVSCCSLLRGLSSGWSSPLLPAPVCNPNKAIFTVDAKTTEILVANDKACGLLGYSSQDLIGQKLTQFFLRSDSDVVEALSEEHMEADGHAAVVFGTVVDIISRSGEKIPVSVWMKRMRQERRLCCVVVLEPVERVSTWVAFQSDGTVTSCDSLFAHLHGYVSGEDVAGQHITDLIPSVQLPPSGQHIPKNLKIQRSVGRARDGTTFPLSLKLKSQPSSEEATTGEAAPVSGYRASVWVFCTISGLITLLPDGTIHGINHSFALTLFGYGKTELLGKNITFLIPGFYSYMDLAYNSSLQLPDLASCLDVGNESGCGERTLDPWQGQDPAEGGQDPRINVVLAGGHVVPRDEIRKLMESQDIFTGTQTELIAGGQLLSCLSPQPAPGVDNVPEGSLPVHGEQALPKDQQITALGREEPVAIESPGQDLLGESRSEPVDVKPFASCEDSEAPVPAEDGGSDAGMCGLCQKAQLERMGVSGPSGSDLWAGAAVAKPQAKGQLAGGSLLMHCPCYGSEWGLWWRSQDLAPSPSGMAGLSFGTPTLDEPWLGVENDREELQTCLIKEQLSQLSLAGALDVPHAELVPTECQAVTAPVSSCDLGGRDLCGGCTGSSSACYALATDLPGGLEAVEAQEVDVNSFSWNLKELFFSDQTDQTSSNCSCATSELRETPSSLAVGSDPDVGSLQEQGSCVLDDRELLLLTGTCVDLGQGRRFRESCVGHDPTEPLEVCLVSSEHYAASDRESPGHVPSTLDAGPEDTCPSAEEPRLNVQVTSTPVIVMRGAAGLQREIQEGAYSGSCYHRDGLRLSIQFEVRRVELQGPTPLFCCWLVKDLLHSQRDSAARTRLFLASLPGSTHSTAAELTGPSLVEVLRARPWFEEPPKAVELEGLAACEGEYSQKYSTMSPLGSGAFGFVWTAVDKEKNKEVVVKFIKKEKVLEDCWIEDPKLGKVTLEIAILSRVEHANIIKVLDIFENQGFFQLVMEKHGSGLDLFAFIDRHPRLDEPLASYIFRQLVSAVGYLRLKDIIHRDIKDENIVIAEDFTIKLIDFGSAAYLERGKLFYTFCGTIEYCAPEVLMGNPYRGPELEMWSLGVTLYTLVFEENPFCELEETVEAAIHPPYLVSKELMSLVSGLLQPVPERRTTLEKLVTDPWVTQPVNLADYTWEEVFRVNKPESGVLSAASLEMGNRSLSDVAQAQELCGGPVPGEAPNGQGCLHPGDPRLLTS
T5 sequence (P10721 26-976 V654A): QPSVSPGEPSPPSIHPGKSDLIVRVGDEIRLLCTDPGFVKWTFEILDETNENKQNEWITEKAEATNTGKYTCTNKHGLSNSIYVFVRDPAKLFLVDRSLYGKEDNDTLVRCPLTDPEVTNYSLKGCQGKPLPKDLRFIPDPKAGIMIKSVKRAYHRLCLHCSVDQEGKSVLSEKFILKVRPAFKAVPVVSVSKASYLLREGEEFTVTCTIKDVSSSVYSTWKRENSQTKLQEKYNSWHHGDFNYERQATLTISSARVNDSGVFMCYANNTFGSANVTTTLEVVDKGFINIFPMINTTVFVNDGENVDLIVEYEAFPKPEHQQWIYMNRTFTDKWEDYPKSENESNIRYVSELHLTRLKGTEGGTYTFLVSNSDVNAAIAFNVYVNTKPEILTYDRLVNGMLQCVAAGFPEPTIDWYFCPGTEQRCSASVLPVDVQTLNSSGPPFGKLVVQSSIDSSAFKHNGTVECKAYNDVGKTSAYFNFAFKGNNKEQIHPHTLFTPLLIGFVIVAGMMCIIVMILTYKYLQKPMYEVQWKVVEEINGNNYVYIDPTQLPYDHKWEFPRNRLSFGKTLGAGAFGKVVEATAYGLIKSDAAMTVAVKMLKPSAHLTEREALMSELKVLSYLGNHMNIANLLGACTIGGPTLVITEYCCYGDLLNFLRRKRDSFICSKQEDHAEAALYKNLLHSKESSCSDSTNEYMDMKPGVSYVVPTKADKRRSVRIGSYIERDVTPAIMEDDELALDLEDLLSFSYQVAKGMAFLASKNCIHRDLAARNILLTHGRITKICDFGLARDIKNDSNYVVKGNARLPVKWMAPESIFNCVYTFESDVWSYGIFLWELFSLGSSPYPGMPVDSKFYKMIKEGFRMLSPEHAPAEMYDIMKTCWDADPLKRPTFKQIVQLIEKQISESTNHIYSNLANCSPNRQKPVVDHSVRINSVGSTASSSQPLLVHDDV

COc1cc(OC)c(Cl)c(-c2ccc3c(NC(=O)c4ccc(N5CCNC(C)(C)C5)cc4)n[nH]c3n2)c1Cl [3D185]
inhibition at 0.01 µM ([1]; 10 nM): -15% | inhibition at 0.1 µM ([1]; 100 nM): 1% | inhibition at 1 µM ([1]; 1000 nM): 10% | IC50 [2]: > 1 µM | IC50 [3]: > 1 µM | IC50 [4]: > 1 µM | IC50 [5]: > 1 µM | IC50 [6]: > 1 µM | IC50 [7]: > 1 µM | IC50 [8]: > 1 µM | IC50 [9]: > 1 µM | IC50 [10]: > 1 µM | IC50 [11]: > 1 µM | IC50 [12]: > 1 µM | IC50 [13]: > 1 µM | IC50 [14]: > 1 µM | IC50 [15]: > 1 µM | IC50 [16]: > 1 µM | IC50 [17]: > 1 µM | IC50 [18]: > 1 µM | IC50 [19]: > 1 µM | IC50 [20]: > 1 µM | IC50 [21]: > 1 µM | inhibition at 0.01 µM ([22]; 10 nM): -2% | inhibition at 0.1 µM ([22]; 100 nM): 8% | inhibition at 1 µM ([22]; 1000 nM): 70% | inhibition at 0.01 µM ([23]; 10 nM): 7% | inhibition at 0.1 µM ([23]; 100 nM): 5% | inhibition at 1 µM ([23]; 1000 nM): 4% | inhibition at 0.01 µM ([24]; 10 nM): -2% | inhibition at 0.1 µM ([24]; 100 nM): -10% | inhibition at 1 µM ([24]; 1000 nM): -9% | selectivity for FGFR1 over other kinases ([25]; 17 kinases): > 20 fold | selectivity for FGFR1 over other kinases ([25]; 349 kinases): greater than 200 fold | inhibition at 0.01 µM ([26]; 10 nM): 4% | inhibition at 0.1 µM ([26]; 100 nM): 14% | inhibition at 1 µM ([26]; 1000 nM): 37% | IC50 ([27]; mean ± SD): 0.382 µM | selectivity for FGFR1 over KDR ([27]; molecular kinase assays): over 760 fold | inhibition at 0.01 µM ([28]; 10 nM): 1% | inhibition at 0.1 µM ([28]; 100 nM): 37% | inhibition at 1 µM ([28]; 1000 nM): 90% | inhibition at 0.01 µM ([29]; 10 nM): 5% | inhibition at 0.1 µM ([29]; 100 nM): 1% | inhibition at 1 µM ([29]; 1000 nM): 6%
